Values of other authors in patent US20050228335A1, “Physical, structural, mechanical, electrical and electromechanical features for use in association with electrically assisted delivery devices and systems” (priority 2004, published 2005).

Conditions: iontophoresis in vitro across human skin

| SMILES | Cumulative delivery compared with lidocaine |
| --- | --- |
| CCCN(CC)C(CC)C(=O)Nc1c(C)cccc1C (centres unmarked) [etidocaine] | slightly greater delivery |
| CCN(CC)CCOC(=O)c1ccc(N)cc1 [procaine] | slightly greater delivery |
